Reference: paper PMC8147293, “Library of Selenocyanate and Diselenide Derivatives as In Vivo Antichagasic Compounds Targeting Trypanosoma cruzi Mitochondrion” (Pharmaceuticals, 2021)
Like-named read-outs stand apart in the source and are kept apart here.

Assays:
[1] = tested on: epimastigotes of T. cruzi Arequipa strain; test: Screening against extracellular epimastigotes (resazurin); type: cell-based, Trypanosoma cruzi; conditions: for IC50: Trypanosoma cruzi
Method: Trypanocidal activity against epimastigotes of T. cruzi Arequipa strain (MHOM/Pe/2011/Arequipa, discrete typing unit V) was tested as previously described. In short, 5 × 10^5 epimastigotes·mL^−1 were treated by adding the tested compounds at a concentration range from 100 to 0.2 µM in 96-well microplates (200 µL·well^−1) for 48 h. Subsequently, resazurin sodium salt (Sigma-Aldrich) was added to be incubated for further 24 h. Finally, the absorbance was measured, and the trypanocidal activity was expressed as the IC50 (inhibitory concentration 50) using GraphPad Prism 6 software. Each compound concentration was tested in triplicate in three independent experiments.

Mammalian Vero cells = test: Cytotoxicity test on Vero cells (resazurin); type: cell-based; conditions: Chlorocebus sabaeus, 72 h; Table 1; Vero cells, 48 h + 24 h resazurin; read-out: Toxicity IC50 Vero Cell
Method: Mammalian Vero cells (EACC No. 84113001), cultured as previously reported, were used to determine the cytotoxicity of the tested compounds [56]. In short, 1.25 × 10^4 Vero cells·mL^−1 were treated by adding the compounds at a concentration range from 400 to 1 µM in 96-well microplates (200 µL·well^−1) at 37 °C for 48 h. Subsequently, resazurin sodium salt (Sigma-Aldrich) was added to be incubated for further 24 h. Finally, cell viability was determined following the same procedure as described to assess the trypanocidal activity in the epimastigotes. Each compound concentration was tested in triplicate in three independent experiments.

Trypanosoma cruzi [2] = test: Parasitemia monitoring in infected BALB/c mice, acute Chagas disease; type: in vivo; conditions: oral 20 mg/kg per day for 5 days from 9th dpi, versus untreated
Method: (§1) Infection was carried out by intraperitoneal inoculation of 5 × 10^5 BTs of T. cruzi per mouse in 0.2 mL PBS [56]. The mice were treated by oral route (~200 µL) once daily for 5 consecutive days. The treatment for mice treated in the acute and chronic phases began when the infection was confirmed (9th day post-infection (dpi)) and was established that the animals had entered the chronic phase (100th dpi), respectively.
(§2) The mice were divided into six groups (n = 3 per group): 0, negative control group (uninfected and untreated mice); I, positive control group (infected and untreated mice); II, BZN group (mice infected and treated with BZN); III, 8 group (mice infected and treated with 8); IV, 10 group (mice infected and treated with 10); V, 15 group (mice infected and treated with 15). The tested compounds and BZN were prepared at 2 mg·mL^−1 in an aqueous suspension vehicle containing 5% (v/v) DMSO and 0.5% (w/v) hydroxypropyl methylcellulose, as previously reported. Therefore, doses of 20 mg·kg^−1 per day were administered for 5 consecutive days, and vehicle only was administered in the negative and positive control groups.
(§3) All in vivo assays for the evaluation of compounds in the acute and chronic CD (Scheme 1)—monitoring of parasitemia, immunosuppression, PCR [59, 60], ELISA [56], and clinical analysis [56]—were performed as previously described. PCR was based on the Spliced Leader (SL) intergenic region sequence of T. cruzi (for detailed description, see literature reported previously).

Trypanosoma cruzi [3] = test: Parasitemia reactivation after immunosuppression in BALB/c mice; type: in vivo; conditions: 20 mg/kg per day for 5 days, compared to untreated mice
Method: Secondly, the experimental cure was determined using a double checking widely used in in vivo trypanocidal trials. This double checking—based on immunosuppression and PCR (Figure 2B,C, respectively)—was performed to evaluate the treatment effectiveness and the disease extent in both acute and chronic CD at the end of the in vivo timeline. The mice whose parasitemia and PCR remain negative after immunosuppression are considered cured.
Immunosuppression enhances the reactivation of any residual infection, which is proportional to the parasite survival rate.
as §1, §2, §3

Trypanosoma cruzi [4] = test: PCR of seven organs/tissues of treated BALB/c mice (Spliced Leader sequence); type: in vivo
Method: To assess the efficacy of potential candidates by confirming the absence of infection in the target locations, PCR was carried out at the end of the in vivo timeline (Figure 2C). PCR was positive in seven organs/tissues for the untreated (control) mice groups in both phases, showing the presence of the typical nested amastigotes of the chronic CD.
as §1, §2, §3
Figure 2 (A) Parasitemia profiles of each group of mice infected with Trypanosoma cruzi and treated during the acute Chagas disease over a period of 55 days: control (untreated), benznidazole (BZN), 8, 10 and 15. Treatment days are represented in grey. […]. (B) Parasitemia reactivation by fresh blood in the chronic Chagas disease after the immunosuppression cycles for each group of mice treated during the acute and chronic phases of the disease: control (untreated), benznidazole (BZN), 8, 10, and 15. […]. (C) PCR analysis of seven organs/tissues with the Trypanosoma cruzi Spliced Leader (SL) intergenic region sequence in the chronic Chagas disease for each group of mice treated during the acute and chronic phases of the disease: (a) control (untreated), (b) benznidazole, (c) 8, (d) 10, and (e) 15.

Trypanosoma cruzi [5] = test: Anti-T. cruzi IgG (ELISA) and splenomegaly in treated BALB/c mice; type: in vivo
Method: Otherwise, the immune status of the mice was evaluated—through the titer of total anti-T. cruzi IgG and the splenomegaly (Figure S1)—since it is a characteristic linked to the parasite load and the effectiveness ascribed to the potential candidates. […].
as §3
Figure S1. A) Anti-Trypanosoma cruzi immunoglobulin G levels, expressed in absorbance at 492 nm, at different days post-infection (dpi) for each group of mice treated during the acute and chronic phases of Chagas disease: control (untreated), benznidazole (BZN), 8, 10 and 15. Blank and uninfected mice are also […]
included. […] Values are the means of three mice ± standard deviation. (IS) immunosuppression. * Significant differences between untreated and treated mice for α =
0.05. B) Weight percentage of spleens in the chronic Chagas disease for each group of mice treated during the acute and chronic phases of the disease: control (untreated), benznidazole (BZN), 8, 10 and 15. Values are the means of three mice ± standard deviation. In brackets: reduction of splenomegaly in comparison to […]
(1 picture or pasted object on this page, not shown here)

Trypanosoma cruzi Fe-SOD = test: SOD enzymatic inhibition, Fe-SOD; type: biochemical; conditions: at 100 µM
Method: (§4) Excreted Fe-SOD protein—obtained and quantified as previously described [64]—and commercial Cu/Zn-SOD from human erythrocytes (Sigma-Aldrich) were exposed to the tested compounds at a concentration range from 100 to 0.1 µM to determine in vitro activities using the method previously described.

[6] = target: T1, human erythrocytes CuZn-SOD (Homo sapiens, UniProt P00441); test: SOD enzymatic inhibition, CuZn-SOD; type: biochemical; conditions: 100 to 0.1 µM, read-out: CuZn-SOD IC50 (in brackets)
T1 construct: commercial Cu/Zn-SOD from human erythrocytes (Sigma-Aldrich); purchased Sigma-Aldrich; host or cells: human erythrocytes
Method: as §4

T1 sequence (P00441 whole entry): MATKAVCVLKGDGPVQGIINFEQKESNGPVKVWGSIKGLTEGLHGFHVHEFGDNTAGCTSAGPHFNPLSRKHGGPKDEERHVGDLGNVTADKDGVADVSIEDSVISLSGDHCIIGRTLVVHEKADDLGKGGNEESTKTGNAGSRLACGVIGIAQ

**Q.** How did the “Selectivity Index Epimast.” value ([1]; IC50 Vero cells/IC50 epimastigotes) turn out when FC(F)(F)c1ccc(C[Se][Se]Cc2ccc(C(F)(F)F)cc2)cc1 [compound 8] was run?
**A.** Its value is 23.

**Q.** And the IC50 ([1]; Table 1, T. cruzi epimastigotes, 48 h treatment + 24 h resazurin, read-out: Activity IC50 Epimast.)?
**A.** The IC50 was 1.9 ± 0.1 µM.

**Q.** And the IC50 ([1]; Table S1, cultured epimastigote form of T. cruzi, read-out: Activity IC50)?
**A.** The IC50 was ≤ 10 µM.

**Q.** What about the CC50 (Mammalian Vero cells) of the same molecule?
**A.** Its CC50 is 44.3 ± 2.7 µM.

**Q.** What about the “parasitemia levels (counting BTs) during the acute CD” value (Trypanosoma cruzi [2]) of the same molecule?
**A.** Its value is “trypanocidal activity was even stronger”.

**Q.** What about the “reactivation of infection after immunosuppression” value (Trypanosoma cruzi [3]; mice treated in acute CD) of the same molecule?
**A.** Its value is 67%.

**Q.** What about the “reactivation of infection after immunosuppression” value (Trypanosoma cruzi [3]; mice treated in chronic CD) of the same molecule?
**A.** Its value is 44%.

**Q.** What about the “negative PCR (parasite-free locations)” value (Trypanosoma cruzi [4]; mice treated in acute CD) of the same molecule?
**A.** The value was 3/7.

**Q.** And the “negative PCR (parasite-free locations)” value (Trypanosoma cruzi [4]; mice treated in chronic CD)?
**A.** Its value is 4/7.

**Q.** What about the “IgG levels in the acute treatment” value (Trypanosoma cruzi [5]; from the beginning to the end of the in vivo timeline) of the same molecule?
**A.** The value was “very low IgG levels”.

**Q.** What about the “total anti-T. cruzi IgG levels and splenomegaly” value (Trypanosoma cruzi [5]; treated BALB/c mice versus untreated, excluding IgG levels of chronic CD) of the same molecule?
**A.** Its value is “significant reduction”.

**Q.** And the Fe-SOD inhibition (Trypanosoma cruzi Fe-SOD)?
**A.** The Fe-SOD inhibition was 100%.

**Q.** And the IC50 [6]?
**A.** The IC50 was > 100 µM.
